Reference: BindingDB's records for doi:10.1124/jpet.302.1.374 (University of Rochester, 2002)

Tests used:
[1] = target: Kappa-type opioid receptor (Cavia porcellus, UniProt P41144)
[2] = target: Delta-type opioid receptor (Sus scrofa, UniProt P79291)
Chain of Delta-type opioid receptor (P79291 whole entry): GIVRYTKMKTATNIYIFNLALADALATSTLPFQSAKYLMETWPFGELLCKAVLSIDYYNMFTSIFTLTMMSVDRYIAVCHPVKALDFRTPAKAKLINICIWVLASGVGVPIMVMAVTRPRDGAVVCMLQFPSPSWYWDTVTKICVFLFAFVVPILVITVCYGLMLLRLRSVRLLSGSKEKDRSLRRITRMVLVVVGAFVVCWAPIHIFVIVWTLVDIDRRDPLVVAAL

Chain of Kappa-type opioid receptor (P41144 whole entry): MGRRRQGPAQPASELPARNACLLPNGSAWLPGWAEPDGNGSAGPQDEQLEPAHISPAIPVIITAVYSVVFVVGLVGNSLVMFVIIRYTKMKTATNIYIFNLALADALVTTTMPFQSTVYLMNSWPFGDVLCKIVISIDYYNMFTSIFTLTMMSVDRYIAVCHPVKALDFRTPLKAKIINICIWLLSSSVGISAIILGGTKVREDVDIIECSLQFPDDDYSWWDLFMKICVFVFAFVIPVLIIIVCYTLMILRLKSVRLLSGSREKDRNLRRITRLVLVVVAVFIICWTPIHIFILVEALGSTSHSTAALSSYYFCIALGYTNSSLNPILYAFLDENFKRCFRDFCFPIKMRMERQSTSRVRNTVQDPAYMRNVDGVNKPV

## C[C@@H]1[C@@H]2Cc3ccc(O)cc3[C@@]1(C)CCN2CC1CC1 [(SSS)-12-Cyclopropylmethyl-13-methyl-12-aza-tricyclo[9.1.1.0*3,8*]trideca-3(8),4,6-trien-6-ol(cyclazocine)]
[1]
  Ki: 0.18 nM
[2]
  Ki: 1.1 nM
